# Results from PubChem BioAssay AID248 (DTP/NCI, 2004).
# Inconclusive results and toxic doses are left out.
# Test system: L1210 leukemia ip in BDF1 mice, survival T/C
# Experiment: NCI In Vivo Anticancer Drug Screen. Data for tumor model L1210 Leukemia (intraperitoneal) in B6D2F1 (BDF1) mice
# Settings: endpoint: mean survival time, higher = longer survival
# Outline: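 Survival endpoint. Drug-treated group vs vehicle group, expressed as T divided by C. Tumor passaged by transplantation.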
# [1] = dose: 100.0 mg/kg/injection, schedule: Q01DX009 (ip), vehicle: saline
# [2] = dose: 200.0 mg/kg/injection, schedule: Q01DX009 (ip), vehicle: saline
# [3] = dose: 50.0 mg/kg/injection, schedule: Q04DX003 (ip), vehicle: Klucel (hydroxypropylcellulose) (HPC)
# [4] = dose: 100.0 mg/kg/injection, schedule: Q04DX003 (ip), vehicle: Klucel (hydroxypropylcellulose) (HPC)
# [5] = dose: 200.0 mg/kg/injection, schedule: Q04DX003 (ip), vehicle: Klucel (hydroxypropylcellulose) (HPC)
# [6] = dose: 75.0 mg/kg/injection, schedule: Q01DX001 (ip), vehicle: saline
# [7] = dose: 100.0 mg/kg/injection, schedule: Q01DX009 (ip), vehicle: saline with Tween-80
# [8] = dose: 200.0 mg/kg/injection, schedule: Q01DX009 (ip), vehicle: saline with Tween-80
smiles,measurement,setting,value
Cc1ccc2c(c1)SP(=S)(c1ccccc1)N2 (stereo not drawn),T/C,"dose: 15.0 mg/kg/injection, schedule: Q01DX Z (ip), vehicle: saline",100 % of control
same,T/C,"dose: 25.0 mg/kg/injection, schedule: Q01DX Z (ip), vehicle: saline",89 % of control
O=NN(CCCl)C(=O)NC(C(=O)O)C1CCCCC1 (stereo not drawn),T/C,"dose: 8.0 mg/kg/injection, schedule: Q01DX001 (ip), vehicle: saline with Tween-80",118 % of control
same,T/C,"dose: 12.0 mg/kg/injection, schedule: Q01DX001 (ip), vehicle: saline with Tween-80",171 % of control
same,T/C,"dose: 26.0 mg/kg/injection, schedule: Q01DX001 (ip), vehicle: saline with Tween-80",153 % of control
same,T/C,"dose: 40.0 mg/kg/injection, schedule: Q01DX001 (ip), vehicle: saline with Tween-80",253 % of control
same,T/C,"dose: 60.0 mg/kg/injection, schedule: Q01DX001 (ip), vehicle: saline with Tween-80",412 % of control
same,T/C,"dose: 90.0 mg/kg/injection, schedule: Q01DX001 (ip), vehicle: saline with Tween-80",482 % of control
same,T/C,"dose: 133.0 mg/kg/injection, schedule: Q01DX001 (ip), vehicle: saline with Tween-80",266 % of control
C/C(=N/NC(=O)c1ccccc1)C(=O)c1ccccc1,T/C,"dose: 100.0 mg/kg/injection, schedule: Q01DX001 (ip), vehicle: Klucel (hydroxypropylcellulose) (HPC)",101 % of control
same,T/C,"dose: 200.0 mg/kg/injection, schedule: Q01DX001 (ip), vehicle: Klucel (hydroxypropylcellulose) (HPC)",97 % of control
same,T/C,"dose: 400.0 mg/kg/injection, schedule: Q01DX001 (ip), vehicle: Klucel (hydroxypropylcellulose) (HPC)",98 % of control
CC(O)C(O)C(=O)NN (stereo not drawn),T/C,"dose: 50.0 mg/kg/injection, schedule: Q01DX009 (ip), vehicle: saline",91 % of control
same,T/C,[1],98 % of control
same,T/C,[2],98 % of control
CN(C)c1ccc(N=Nc2ccc3c(c2)C(=O)c2ccccc2C3=O)cc1,T/C,"dose: 100.0 mg/kg/injection, schedule: Q01DX009 (ip), vehicle: other",104 % of control
same,T/C,"dose: 200.0 mg/kg/injection, schedule: Q01DX009 (ip), vehicle: other",105 % of control
same,T/C,"dose: 400.0 mg/kg/injection, schedule: Q01DX009 (ip), vehicle: other",98 % of control
NC(=O)n1nccc1N,T/C,[1],100 % of control
same,T/C,"dose: 100.0 mg/kg/injection, schedule: Q04DX003 (ip), vehicle: saline",94 % of control
same,T/C,[2],103 % of control
same,T/C,"dose: 200.0 mg/kg/injection, schedule: Q04DX003 (ip), vehicle: saline",104 % of control
same,T/C,"dose: 400.0 mg/kg/injection, schedule: Q01DX009 (ip), vehicle: saline",105 % of control
same,T/C,"dose: 400.0 mg/kg/injection, schedule: Q04DX003 (ip), vehicle: saline",91 % of control
O=C(COc1ccc(Cl)c(Cl)c1)Nc1ccc[n+](Cc2c(Cl)cccc2S(=O)(=O)F)c1,T/C,"dose: 100.0 mg/kg/injection, schedule: Q01DX001 (ip), vehicle: saline",88 % of control
same,T/C,"dose: 200.0 mg/kg/injection, schedule: Q01DX001 (ip), vehicle: saline",101 % of control
CCOC(=O)CNS(=O)(=O)CCN1C(=O)c2ccccc2C1=O,T/C,[3],98 % of control
same,T/C,[4],100 % of control
same,T/C,[5],98 % of control
NCCSC1(O)C(=O)c2ccccc2C1=O,T/C,"dose: 37.5 mg/kg/injection, schedule: Q04DX003 (ip), vehicle: saline",97 % of control
same,T/C,[6],104 % of control
same,T/C,"dose: 75.0 mg/kg/injection, schedule: Q04DX003 (ip), vehicle: saline",116 % of control
same,T/C,"dose: 150.0 mg/kg/injection, schedule: Q01DX001 (ip), vehicle: saline",110 % of control
same,T/C,"dose: 150.0 mg/kg/injection, schedule: Q04DX003 (ip), vehicle: saline",111 % of control
NC(=S)NN=C1CCCCCCC1,T/C,"dose: 8.4 mg/kg/injection, schedule: Q01DX Z (ip), vehicle: methylcellulose (MC)",98 % of control
same,T/C,"dose: 23.0 mg/kg/injection, schedule: Q01DX Z (ip), vehicle: methylcellulose (MC)",101 % of control
same,T/C,"dose: 39.0 mg/kg/injection, schedule: Q01DX Z (ip), vehicle: methylcellulose (MC)",111 % of control
C=C1C(=O)N(C)CCC1(O)C(CC)C(=O)OC (stereo not drawn),T/C,"dose: 6.25 mg/kg/injection, schedule: Q01DX001 (ip), vehicle: saline",98 % of control
same,T/C,"dose: 12.5 mg/kg/injection, schedule: Q01DX001 (ip), vehicle: saline",98 % of control
same,T/C,"dose: 25.0 mg/kg/injection, schedule: Q01DX001 (ip), vehicle: saline",98 % of control
same,T/C,"dose: 50.0 mg/kg/injection, schedule: Q01DX001 (ip), vehicle: saline",98 % of control
C(#[C][Sn]([C]#Cc1ccccc1)([C]#Cc1ccccc1)[C]#Cc1ccccc1)c1ccccc1,T/C,"dose: 50.0 mg/kg/injection, schedule: Q01DX009 (ip), vehicle: saline with Tween-80",92 % of control
same,T/C,[7],103 % of control
same,T/C,[8],95 % of control
COC(=O)C(CC(C)C)NC(=O)CN(C)C(=O)OCc1ccccc1 (stereo not drawn),T/C,"dose: 75.0 mg/kg/injection, schedule: Q04DX003 (sc), vehicle: olive oil, sesame oil, peanut oil",105 % of control
same,T/C,"dose: 150.0 mg/kg/injection, schedule: Q04DX003 (sc), vehicle: olive oil, sesame oil, peanut oil",103 % of control
same,T/C,"dose: 300.0 mg/kg/injection, schedule: Q04DX003 (sc), vehicle: olive oil, sesame oil, peanut oil",108 % of control
O=C(Nc1ccc(C2=NCCN2)cc1)c1cncc(C(=O)Nc2ccc(C3=NCCN3)cc2)c1,T/C,"dose: 1.0 mg/kg/injection, schedule: Q01DX Z (ip), vehicle: saline",97 % of control
same,T/C,"dose: 2.0 mg/kg/injection, schedule: Q01DX Z (ip), vehicle: saline",111 % of control
same,T/C,"dose: 15.0 mg/kg/injection, schedule: Q01DX Z (ip), vehicle: carboxymethylcellulose (CMC)",223 % of control
same,T/C,"dose: 16.0 mg/kg/injection, schedule: Q01DX Z (ip), vehicle: saline",214 % of control
same,T/C,"dose: 30.0 mg/kg/injection, schedule: Q01DX Z (ip), vehicle: carboxymethylcellulose (CMC)",158 % of control
same,T/C,"dose: 30.0 mg/kg/injection, schedule: Q01DX Z (oral), vehicle: saline",101 % of control
same,T/C,"dose: 60.0 mg/kg/injection, schedule: Q01DX Z (ip), vehicle: carboxymethylcellulose (CMC)",120 % of control
same,T/C,"dose: 60.0 mg/kg/injection, schedule: Q01DX Z (oral), vehicle: saline",104 % of control
same,T/C,"dose: 120.0 mg/kg/injection, schedule: Q01DX Z (oral), vehicle: saline",98 % of control
same,T/C,"dose: 240.0 mg/kg/injection, schedule: Q01DX Z (oral), vehicle: saline",106 % of control
same,T/C,"dose: 480.0 mg/kg/injection, schedule: Q01DX Z (oral), vehicle: saline",101 % of control
same,T/C,"dose: 960.0 mg/kg/injection, schedule: Q01DX Z (oral), vehicle: saline",101 % of control
CCc1nc(-c2ccccc2)c(-c2ccccc2)[nH]1,T/C,[7],90 % of control
same,T/C,[8],98 % of control
same,T/C,"dose: 400.0 mg/kg/injection, schedule: Q01DX009 (ip), vehicle: saline with Tween-80",87 % of control
COc1cc(Br)c(CC2c3cc(OCc4ccccc4)c(OC)cc3CCN2C)cc1OC (stereo not drawn),T/C,"dose: 100.0 mg/kg/injection, schedule: Q04DX003 (ip), vehicle: acetone",112 % of control
N#CCCCCCCCCC(=O)OCCC#N,T/C,"dose: 100.0 mg/kg/injection, schedule: Q01DX001 (ip), vehicle: other",95 % of control
same,T/C,"dose: 200.0 mg/kg/injection, schedule: Q01DX001 (ip), vehicle: other",98 % of control
same,T/C,"dose: 400.0 mg/kg/injection, schedule: Q01DX001 (ip), vehicle: other",97 % of control
O=C(N/N=C\c1ccc(Cl)c(Cl)c1)N/N=C/c1ccc(Cl)c(Cl)c1,T/C,[3],92 % of control
same,T/C,[4],87 % of control
same,T/C,[5],92 % of control
O=C(NCCCl)NC1CCCCCCCCCCC1,T/C,"dose: 100.0 mg/kg/injection, schedule: Q01DX009 (ip), vehicle: Klucel (hydroxypropylcellulose) (HPC)",98 % of control
same,T/C,[4],100 % of control
same,T/C,"dose: 200.0 mg/kg/injection, schedule: Q01DX009 (ip), vehicle: Klucel (hydroxypropylcellulose) (HPC)",97 % of control
same,T/C,[5],102 % of control
same,T/C,"dose: 400.0 mg/kg/injection, schedule: Q01DX009 (ip), vehicle: Klucel (hydroxypropylcellulose) (HPC)",89 % of control
same,T/C,"dose: 400.0 mg/kg/injection, schedule: Q04DX003 (ip), vehicle: Klucel (hydroxypropylcellulose) (HPC)",102 % of control
CS(=O)(=O)OC/C(Br)=C/Br,T/C,"dose: 100.0 mg/kg/injection, schedule: Q01DX001 (ip), vehicle: carboxymethylcellulose (CMC)",103 % of control
same,T/C,"dose: 200.0 mg/kg/injection, schedule: Q01DX001 (ip), vehicle: carboxymethylcellulose (CMC)",101 % of control
COc1ccc2c3c1OC1C(=O)CCC4C(C2)N(C)CCC314 (stereo not drawn),T/C,[6],94 % of control
